Assay results: a melting point compilation (Tetko et al.)

| melting point [°C] | SMILES |
| --- | --- |
| 110 to 112 | CC(C)n1[nH]ccc1=NC(=O)Nc1ccccc1 |
| 134 to 136 | COCCOc1ccc(C(=O)O)cc1[N+](=O)[O-] |
| 69 to 71 | O=S(=O)(Nc1ccccc1Br)N1CCCC1 |
| 77 to 79 | CCOC(=O)c1csc(CC#N)n1 |
| 155 to 157 | Cc1cc([N+](=O)[O-])ccc1S(N)(=O)=O |
| 167 to 169 | O=C(CCl)Nc1ccc(N2CCc3ccccc32)cc1 |
| 114 to 116 | COc1ccc(OCc2cc(C)on2)c(C(=O)O)c1 |
| 68 to 70 | C=CCc1cc([N+](=O)[O-])ccc1O |
| 141 to 143 | NS(=O)(=O)c1ccccn1 |
| 297 to 299 | N#Cc1ccc(-c2ccccc2)[nH]c1=O |
| 92 to 94 | CC(C)CNC(=O)C(C)Nc1cccc(Br)c1 (configuration not stated) |
| 179 to 181 | O=C(O)CC1=NN(c2ccc(Cl)cc2Cl)C(=O)C1 |
| 200 to 202 | O=C(O)c1cnc(-c2ccccc2Cl)s1 |
| 99 to 101 | Cc1cnn(-c2ccc(S(=O)(=O)Cl)cc2F)c1 |
| 74 to 76 | ClC(c1ccccc1)c1nc(-c2ccccc2)no1 (configuration not stated) |
| 88 to 90 | COC(=O)c1cc2ccc(F)cc2s1 |
| 229 to 231 | O=C(O)c1oc2cc(Cl)ccc2c1-c1ccccc1 |
| 201 to 203 | O=C1CCc2cc([N+](=O)[O-])ccc2N1 |
| 86 to 88 | CC(=O)N1CCN(c2ccccc2C=O)CC1 |
| 137 to 139 | O=C(CCl)NCc1cccc(C(=O)NC2CC2)c1 |
| 323 to 325 | O=C(O)c1cc(-c2cccnc2)nc2ccccc12 |
| 204 to 207 | NC(=S)Cc1nc2ccccc2[nH]1 |
| 173 to 175 | CCCCNC(=O)Nc1cccc2c1CCCN2 |

| melting point [°C] | SMILES |
| --- | --- |
| 167 to 169 | O=c1[nH]c(CCl)nc2scc(-c3ccccc3Cl)c12 |
| 45 to 49 | CCOCCCNC(=O)CC#N |
| 79 to 81 | O=C1C=CC(=O)N1CCc1ccc(F)cc1 |
| 104 to 106 | NCc1ccc(N2CCC(O)CC2)c(F)c1 |
| 197 to 199 | O=C1Nc2ccc(S(=O)(=O)Cl)c3cccc1c23 |
| 89 to 91 | Nc1nc(Cc2ccccc2)cs1 |
| 88 to 90 | CCCOc1cccc(CC(=O)O)c1 |
| 92 to 94 | N#CC1=C(N)CCCC1 |
| 190 to 192 | NC(=O)NC(CC(=O)O)c1cccs1 (configuration not stated) |
| 131 to 133 | CC(=O)NCCc1ccc(S(=O)(=O)Cl)cc1 |
| 184 to 186 | O=C(O)C1CCS(=O)(=O)CC1 |
| 109 to 111 | Cc1cccc(NC(=O)N2CCNCC2)c1 |
| 217 to 219 | Cc1cc(C)c2c(C(=O)O)cc(C3CC3)nc2c1 |
| 224 to 226 | Nc1cc(N2CCNC2=O)ccc1Cl |
| 170 to 172 | Cc1ccc(NC(N)=O)cc1C |
| 130 to 132 | Cc1ccc(N)cc1N1CCOC1=O |
| 297 to 299 | CS(=O)(=O)c1ccc(-c2nnc(N)o2)cc1 |
| 151 to 153 | O=C(CC1(C(=O)O)CCCCC1)NC1CC1 |
| 121 to 123 | COc1cc(N)ccc1NC(C)=O |
| 57 to 59 | CNc1ccc(Br)nc1 |
| 286 to 288 | CCc1ccc(/C=C/c2cc(C(=O)O)c3cc(Br)ccc3n2)cc1 |
| 106 to 108 | NNC(=O)C1COCCO1 (configuration not stated) |
| 177 to 179 | O=C(O)C1CC(=O)N(c2ccccc2Br)C1 (configuration not stated) |

| melting point [°C] | SMILES |
| --- | --- |
| 116 to 118 | CC(C)C(Br)C(=O)NC1CCCCC1 (configuration not stated) |
| 93 to 95 | COC(=O)CNC(=O)Cc1ccc(N)cc1 |
| 101 to 103 | CC(=CC(=O)O)c1ccccc1F |
| 51 to 55 | Fc1ccc(-c2nc(CCl)no2)cc1 |
| 78 to 80 | O=C(O)C1CC1c1cccc(F)c1 (configuration not stated) |
| 195 to 197 | Clc1nccn2cnnc12 |
| 164 to 166 | O=C(O)Cc1ccc([N+](=O)[O-])cc1Br |
| 167 to 169 | NC(=NO)c1ccc(OCc2ccccc2)cc1 |
| 189 to 191 | COc1ccc2c(CCl)cc(=O)oc2c1 |
| 121 to 123 | CCC(=O)Nc1ccc(C)c(N)c1 |
| 110 to 112 | O=S(=O)(NCCOc1ncc(C(F)(F)F)cc1Cl)c1c(F)cccc1F |
| 26 to 28 | CN(C)c1cccc(Cl)c1C=O |
| 99 to 101 | Nc1ccc2nc(C3CC3)oc2c1 |
| 168 to 170 | O=C(CBr)c1cc2cc(Cl)ccc2o1 |
| 199 to 201 | NC(=O)c1n[nH]c2ccc(N)cc12 |
| 158 to 160 | FC(F)(F)c1cc(Cl)nc(-c2ccncc2)n1 |
| 64 to 66 | N#Cc1cc(F)ccc1S(=O)(=O)Cl |
| 110 to 112 | COC(=O)c1cc2ccccc2c(Cl)n1 |
| 149 to 151 | COc1cc2ncc(Cl)nc2cc1OC |
| 82 to 84 | O=C(CCl)NCc1cn(Cc2ccccc2)nc1-c1ccccc1 |
| 243 to 245 | O=C(O)c1ccc(S(=O)(=O)NC2CC2)cc1 |
| 159 to 161 | CC(=O)N[C@@H](CC(=O)O)C(N)=O |
| 157 to 159 | FC(F)(F)CNc1ccncc1 |

| melting point [°C] | SMILES |
| --- | --- |
| 62 to 64 | Cc1ccc([N+](=O)[O-])c(C)c1S(=O)(=O)Cl |
| 91 to 93 | COc1ccc(C(C)=O)cc1-c1ccccc1 |
| 117 to 121 | O=[N+]([O-])c1ccc(O)c(Cc2ccccc2)c1 |
| 211 to 213 | CCn1cnnc1-c1ccc(C(=O)O)cc1 |
| 141 to 143 | Cc1cc(C)cc(NC(=O)CCl)c1 |
| 49 to 51 | Cc1cc(O)cc(C(C)C)c1 |
| 267 to 269 | N#Cc1ccc(-c2csc(N)n2)cc1 |
| 196 to 198 | NS(=O)(=O)c1cnn(-c2ccccc2)c1 |
| 188 to 190 | NC(=O)c1ccc(S(=O)(=O)Cl)cc1 |
| 112 to 114 | N#Cc1cccc(CN2C(=O)CSC2=O)c1 |
| 139 to 141 | CN(C)S(=O)(=O)c1ccc2nc(Cl)c(Cl)nc2c1 |
| 50 to 52 | O=[N+]([O-])c1ccn(CCBr)n1 |
| 102 to 104 | Cc1cc(C(=O)CCl)c(C)n1-c1ccc(C(C)(C)C)cc1 |
| 189 to 191 | NC(=O)Nc1cccnc1 |
| 99 to 101 | CCc1cccc2c(C=O)c[nH]c12 |
| 259 to 261 | NS(=O)(=O)c1ccc(NC(=O)C(=O)O)cc1 |
| 241 to 243 | Cc1ccc(-n2nc(C)c(C(=O)O)c2Cl)cc1Cl |
| 90 to 92 | CC(=O)c1cccc(OCCCC(=O)O)c1 |
| 256 to 258 | O=C1COc2ncc(Br)cc2N1 |
| 134 to 136 | COc1cc(N)c(C(=O)O)c(Br)c1 |
| 67 to 69 | Clc1cc(Cl)cc(-c2noc(Cl)n2)c1 |
| 56 to 58 | Nc1ccn(Cc2ccccc2)n1 |
| 48 to 50 | COc1cc(C=O)cc(Br)c1OCc1ccccc1 |

| melting point [°C] | SMILES |
| --- | --- |
| 109 to 111 | COC(=O)c1ccc(N)cc1F |
| 201 to 203 | CCOC(=O)c1c[nH]n2c1nc(=O)c1ccccc12 |
| 208 to 210 | CCc1cc(=O)[nH]c(-c2ccc(Cl)nc2)n1 |
| 69 to 71 | N#Cc1ccc2c(n1)CCCC2 |
| 219 to 221 | N#Cc1cc(S(N)(=O)=O)ccc1Cl |
| 41 to 43 | CN(C)c1cccc(N)n1 |
| 52 to 54 | CCc1ccc(C(C)(C)C(=O)O)cc1 |
| 144 to 146 | CCc1nsc(S)n1 |
| 100 to 102 | O=C(O)CCN1C(=O)NC2(CCCCC2)C1=O |
| 177 to 179 | NNc1nc(-c2ccccc2)no1 |
| 139 to 141 | O=C(O)c1cccc(OCc2ccccc2OC(F)F)c1 |
| 198 to 200 | O=C(CCCc1cccs1)Nc1cccc(C(=O)O)c1 |
| 259 to 261 | O=C1Nc2cc(Br)ccc2C1=O |
| 213 to 215 | COc1ccc(C2C(C(=O)O)CCC(=O)N2C)cc1 (configuration not stated) |
| 227 to 229 | CCOc1ccc(-n2ncc(C(=O)O)c2C)nn1 |
| 106 to 108 | CCOC(=O)c1c(NC(=O)CCl)sc(-c2ccccc2)c1C |
| 94 to 96 | Nc1ccc(S(=O)(=O)C(F)(F)F)cc1 |
| 227 to 229 | Cc1[nH]c2ccccc2c1C(=O)CCl |
| 100 to 102 | CC(C)COc1ccc(-c2nn(-c3ccccc3)cc2C=O)cc1 |
| 140 to 142 | CCNc1cc2c(nn1)CCNC2 |
| 264 to 266 | O=C(O)c1ccc2c(c1)-c1ccccc1C2 |
| 197 to 199 | N#Cc1ccc(CS(=O)(=O)CC(=O)O)cc1 |
| 180 to 182 | N#Cc1ccc(OCC(=O)NN)cc1 |

| melting point [°C] | SMILES |
| --- | --- |
| 85 to 87 | CCS(=O)(=O)c1ccc(Cl)cc1N |
| 34 to 36 | Nc1cccc(OCC(F)(F)F)c1 |
| 179 to 181 | Sc1nnc(-c2ccc3c(c2)OCO3)o1 |
| 249 to 251 | CS(=O)(=O)Cc1nc2ccccc2n1CC(=O)O |
| 172 to 174 | CN(CC(=O)O)S(=O)(=O)c1ccc2ccccc2c1 |
| 130 to 132 | Cc1nn(C)c(C)c1C(CC(=O)O)C(F)(F)F (configuration not stated) |
| 154 to 156 | COc1ccc(N)cc1OCC(F)(F)F |
| 123 to 126 | CC(C)(C)OC(=O)NNC(=O)OC(C)(C)C |
| 64 to 66 | CC(C)=C(F)C(=O)O |
| 55 to 57 | CCC(C)NC(=O)CN1CCNCC1 (configuration not stated) |
| 188 to 193 | Nc1nc(Cl)ccc1[N+](=O)[O-] |
| 149 to 151 | O=C(O)c1nc(Cl)ccc1F |
| 74 to 76 | CN(C)C(=O)c1cc(F)c(NN)c(F)c1 |
| 157 to 159 | COc1ccc2c(c1)NC(=O)CO2 |
| 98 to 100 | CN(C)CCCNS(=O)(=O)c1ccc(Cl)c([N+](=O)[O-])c1 |
| 244 to 246 | Cn1nc(C(=O)O)c(=O)c2ccccc21 |
| 314 to 316 | Cn1c(=O)n(C)c2cc(S(N)(=O)=O)c(Br)cc21 |
| 211 to 213 | Cc1ccsc1-c1nnc(S)o1 |
| 199 to 201 | O=C(O)Cn1c(COc2ccccc2)nc2ccccc21 |
| 207 to 209 | O=C1CNc2ccccc2C(=O)N1 |
| 184 to 186 | Cc1cc(Cl)nc(-c2ccc([N+](=O)[O-])cc2)n1 |
| 112 to 114 | CN(CC(=O)O)C(=O)C1CC1 |
| 191 to 193 | O=C1CN(c2ccccc2)CCCN1 |

| SMILES | melting point [°C] |
| --- | --- |
| CSc1nc(Cl)cc(CCl)n1 | 28 to 32 |
| CC(C)(C)n1cc(C(=O)O)cn1 | 155 to 157 |
| COCCn1c(C(=O)O)cc2ccccc21 | 139 to 141 |
| CN(C)c1ncnc(Cl)c1CCl | 64 to 66 |
